What was measured:
[1] = target: T1, yeast Gal4-DNA binding domain fused to the ligand binding domain of human RORγ (Homo sapiens, UniProt P51449); test: RORγ Reporter Assay (Gal4); assay type: cell-based; details: RORγ Reporter Assay (Gal4) at 1 μM; values given as lower bounds of ranges
T1 construct: host or cells: HEK293t
T1 sequence (P51449 269-508 limits assumed): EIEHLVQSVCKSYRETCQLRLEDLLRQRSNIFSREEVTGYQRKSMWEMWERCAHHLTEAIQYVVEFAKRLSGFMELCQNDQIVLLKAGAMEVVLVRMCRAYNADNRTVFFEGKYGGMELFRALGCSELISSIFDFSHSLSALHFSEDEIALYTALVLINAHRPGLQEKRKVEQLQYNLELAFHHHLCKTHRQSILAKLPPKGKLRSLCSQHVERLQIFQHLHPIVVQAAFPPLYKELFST
Summary of the method: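 HEK293t reporter cells expressing the hybrid, with Gal4-UAS-driven firefly luciferase, treated in triplicate with compound at 1,000 nM and 100 nM (0.1% DMSO) in medium with 10% charcoal-stripped FBS for 24 h at 37 °C. Luminescence read; percent reduction of RLU calculated relative to vehicle.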

[2] = target: T2, human RORγt (Ligand Binding Domain) (Homo sapiens, UniProt P51449); test: Fluorescence Polarization (FP) Assay; details: Fluorescence Polarization (FP) Assay; values given as upper bounds of activity ranges; read-out: FP activity range
T2 construct: purchased Crelux (Planegg, Germany) batch no PC5032-1
T2 sequence (P51449 269-508 limits assumed): T1 sequence (P51449 269-508 limits assumed)
Summary of the method: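 In vitro FP binding assay monitoring ligand binding within the ligand binding pocket. Probe is a TAMRA-labelled RORγt ligand (MW 910 g/mole); DMSO served as negative control.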

[3] = tested on: Th17 cells; test: Th17 Assay (IL-17 levels in supernatants by ELISA); assay type: cell-based; details: Homo sapiens; read-out: Th17 activity range @ 1 μM (% inhibition)
Description: The activity of the compounds was evaluated using a Fluorescence Polarization (FP) Assay and, in most cases, a Th17 Assay and/or RORγ Reporter assay (also referred to as Gal4 assay). The FP assay is an in vitro assay monitoring binding within the ligand binding pocket. The RORγ and the Th17 assays are both cell-based assays monitoring functional activity of the compound assayed.
Human peripheral blood mononuclear cells (PBMCs) were isolated from buffy coats of healthy human volunteers using the Ficoll paque PLUS kit (GE Healthcare, cat no 17-1440-02), as instructed by the manufacturer. Naive CD4+ T cells were isolated with Naive CD4+ T cell kit, human (Milteny Biotec, cat no 130-094-131). The following modifications were made to the manufacturer's protocol: 1) Incubation with Biotin-Antibody Cocktail and Anti-Biotin MicroBeads was prolonged to 30 minutes, and 2) Cells were washed with 40 mL of Miltenyi buffer. Differentiation of Th17 cells in anti-CD3 (BD Pharmingen, 5 μg/ml) coated 96-well plates (400,000 cells/well, 160 μl RPMI 1640+10% Fetal Bovine Serum) containing 5 μg/ml anti-CD28 (BD Pharmingen), 10 ng/ml IL-2 (R&D Systems), 2.5 ng/ml TGFβ-1 (R&D Systems), 20 ng/ml IL-1β (R&D Systems), 20 ng/ml IL-6 (R&D Systems), 30 ng/ml IL-23 (R&D Systems), 2.5 μg/ml anti-IL-4 (R&D Systems) and 1 μg/ml anti-IFNγ (R&D Systems) and with test compound during the entire differentiation (or vehicle, 0.1% DMSO for control). Test compounds were tested in triplicates, diluted 1000-fold in medium (final DMSO concentration is 0.1%). Incubated for seven days at 37° C., 5% CO2, 95% humidity, and 2-fluoro-4′-[[4-(4-pyridinylmethyl)-1-piperazinyl]methyl]-α,α-bis(trifluoromethyl)-[1,1′-biphenyl]-4-methanol (SR2211 Calbiochem, Cat. No. 557353) was used as positive control. As negative control, cells were differentiated into Th0 using 5 μg/ml anti-CD28 (BD Pharmingen), 10 ng/ml IL-2 (R&D Systems), 2 μg/ml anti-IL4 (R&D Systems) and 2 μg/ml anti-IFNγ (R&D Systems) are negative control. IL-17 levels in supernatants were measured with ELISA (R&D Systems).

SMILES | Gal4 activity range @ 1 μM (% inhibition) [1] | IC50 [2] | inhibition at 1 µM [3]
CC(C)C[C@@H](Oc1ncnc(N2CCC[C@@H]2c2ccc(C(F)(F)F)cc2)c1F)C(N)=O (single isomer, unassigned) [Example 77, (2R)-2-[5-fluoro-6-[(2R)-2-[4-(trifluoromethyl)phenyl]pyrrolidin-1-yl]pyrimidin-4-yl]oxy-4-methyl-pentanamide or (2R)-2-[5-fluoro-6-[(2S)-2-[4-(trifluoromethyl)phenyl]pyrrolidin-1-yl]pyrimidin-4-yl]oxy-4-methyl-pentanamide] |  |  | > 50%
CC(C)(C)C[C@@H](Nc1cc(N2CCCC2c2ccc(C(F)(F)F)cc2)ncn1)C(N)=O (stereo partly drawn) [Example 6, (2R)-4,4-dimethyl-2-[[6-[2-[4-(trifluoromethyl)phenyl]pyrrolidin-1-yl]pyrimidin-4-yl]amino]pentanamide] |  | < 10000 nM | > 20%
CC(C)(C)C[C@@H](Nc1nc(C(F)(F)F)nc(N2CCCC2c2ccc(C(F)(F)F)cc2)c1F)C(N)=O (stereo partly drawn) [Example 13, (2R)-2-[[5-fluoro-2-(trifluoromethyl)-6-[2-[4-(trifluoromethyl)phenyl]pyrrolidin-1-yl]pyrimidin-4-yl]amino]-4,4-dimethyl-pentanamide] |  | < 10000 nM | > 20%
COC(C)(C)CC(C)Nc1ncnc(N2CCCC2c2ccc(C(F)(F)F)cc2)c1F (centres unmarked) [Example 16, 5-fluoro-N-(3-methoxy-1,3-dimethyl-butyl)-6-[2-[4-(trifluoromethyl)phenyl]pyrrolidin-1-yl]pyrimidin-4-amine] |  |  | > 0%
CC(C)C[C@@H](Nc1ncnc(N2CC(C)CC2c2ccc(C(F)(F)F)cc2)c1F)C(=O)O (stereo partly drawn) [Example 33, (2R)-2-[[5-fluoro-6-[4-methyl-2-[4-(trifluoromethyl)phenyl]pyrrolidin-1-yl]pyrimidin-4-yl]amino]-4-methyl-pentanoic acid] |  | < 10000 nM | > 20%
CC1CCN(c2ncnc(N[C@H](CC(C)(C)C)C(N)=O)c2F)C1c1ccc(C(F)(F)F)cc1 (stereo partly drawn) [Example 38, (2R)-2-[[5-fluoro-6-[3-methyl-2-[4-(trifluoromethyl)phenyl]pyrrolidin-1-yl]pyrimidin-4-yl]amino]-4,4-dimethyl-pentanamide] |  | < 2000 nM | > 50%
COc1ccc(Cn2ccc3c(N4CCCC4c4ccc(C(F)(F)F)cc4)ccnc32)cc1OC (centres unmarked) [Example 67, 1-[(3,4-dimethoxyphenyl)methyl]-4-[2-[4-(trifluoromethyl)phenyl]pyrrolidin-1-yl]pyrrolo[2,3-b]pyridine] | >80 % inhibition | < 2000 nM | > 80%
CC(C)C[C@@H](Oc1ncnc(-n2nccc2-c2ccc(C(F)(F)F)cc2)c1F)C(N)=O [Example 80, (2R)-2-[5-fluoro-6-[5-[4-(trifluoromethyl)phenyl]pyrazol-1-yl]pyrimidin-4-yl]oxy-4-methyl-pentanamide] |  |  | > 50%
O=C(O)Cc1ccc(COc2ncnc(NCc3ccc(C(F)(F)F)cc3)c2F)cc1 [Example 83, 2-[4-[[5-fluoro-6-[[4-(trifluoromethyl)phenyl]methylamino]pyrimidin-4-yl]oxymethyl]phenyl]acetic acid] |  |  | > 20%

Now from value to molecule, other results behind:

Gal4 activity range @ 1 μM (% inhibition) [1] | IC50 [2] | SMILES | inhibition at 1 µM [3]
>80 % inhibition | < 500 nM | CC(C)(C)C[C@@H](Nc1ncnc(N2CCC[C@@H]2c2ccc(C(F)(F)F)cc2)c1F)C(N)=O (single isomer, unassigned) [Example 62, (2R)-2-[[5-fluoro-6-[(2R)-2-[4-(trifluoromethyl)phenyl]pyrrolidin-1-yl]pyrimidin-4-yl]amino]-4,4-dimethyl-pentanamide or (2R)-2-[[5-fluoro-6-[(2S)-2-[4-(trifluoromethyl)phenyl]pyrrolidin-1-yl]pyrimidin-4-yl]amino]-4,4-dimethyl-pentanamide] | > 80%
 | < 500 nM | CC1CC(c2ccc(C(F)(F)F)cc2)N(c2ncnc(N[C@H](CC(C)(C)C)C(N)=O)c2F)C1 (stereo partly drawn) [Example 18, (2R)-2-[[5-fluoro-6-[4-methyl-2-[4-(trifluoromethyl)phenyl]pyrrolidin-1-yl]pyrimidin-4-yl]amino]-4,4-dimethyl-pentanamide] | > 80%
 | < 500 nM | CC(C)(C)C[C@@H](Nc1ncnc(N2CCCC2c2ccc(C(C)(C)C)cc2)c1F)C(N)=O (stereo partly drawn) [Example 19, (2R)-2-[[6-[2-(4-tert-butylphenyl)pyrrolidin-1-yl]-5-fluoro-pyrimidin-4-yl]amino]-4,4-dimethyl-pentanamide] | > 80%
 | < 1000 nM | COc1ccc(C[C@H](CO)Nc2ncnc(N3CCCC3c3ccc(C(F)(F)F)cc3)c2F)cc1 (stereo partly drawn) [Example 29, (2R)-2-[[5-fluoro-6-[2-[4-(trifluoromethyl)phenyl]pyrrolidin-1-yl]pyrimidin-4-yl]amino]-3-(4-methoxyphenyl)propan-1-ol] | > 50%
>80 % inhibition | < 500 nM | CC(C)(C)C[C@H](CO)Nc1ncnc(N2CCCC2c2ccc(C(F)(F)F)cc2)c1F (stereo partly drawn) [Example 30, (2R)-2-[[5-fluoro-6-[2-[4-(trifluoromethyl)phenyl]pyrrolidin-1-yl]pyrimidin-4-yl]amino]-4,4-dimethyl-pentan-1-ol] | > 50%
 | < 500 nM | CC(C)(C)C[C@@H](Nc1ncnc(N2CCCC2c2ccc(C(F)(F)F)cc2Cl)c1F)C(N)=O (stereo partly drawn) [Example 35, (2R)-2-[[6-[2-[2-chloro-4-(trifluoromethyl)phenyl]pyrrolidin-1-yl]-5-fluoro-pyrimidin-4-yl]amino]-4,4-dimethyl-pentanamide] | > 50%
 | < 2000 nM | CC(C)(C)C[C@@H](Nc1ncnc(N2CCCC2c2ccc(C(F)(F)F)cc2Cl)c1F)C(=O)O (stereo partly drawn) [Example 36, (2R)-2-[[6-[2-[2-chloro-4-(trifluoromethyl)phenyl]pyrrolidin-1-yl]-5-fluoro-pyrimidin-4-yl]amino]-4,4-dimethyl-pentanoic acid] | > 50%
 | < 1000 nM | NC(=O)Cc1ccc(CNc2ncnc(N3CCCC3c3ccc(C(F)(F)F)cc3)c2F)cc1 (centres unmarked) [Example 40, 2-[4-[[[5-fluoro-6-[2-[4-(trifluoromethyl)phenyl]pyrrolidin-1-yl]pyrimidin-4-yl]amino]methyl]phenyl]acetamide] | > 80%
>50 % inhibition | < 500 nM | O=C(O)Cc1ccc(COc2ncnc(N3CCCC3c3ccc(C(F)(F)F)cc3)c2F)cc1 (centres unmarked) [Example 79, 2-[4-[[5-fluoro-6-[2-[4-(trifluoromethyl)phenyl]pyrrolidin-1-yl]pyrimidin-4-yl]oxymethyl]phenyl]acetic acid] | > 50%
>80 % inhibition | < 500 nM | O=C(O)Cc1ccc(CNc2ncnc(N3CCC[C@@H]3c3ccc(C(F)(F)F)cc3)c2F)cc1 [Example 81, 2-[4-[[[5-fluoro-6-[(2R)-2-[4-(trifluoromethyl)phenyl]pyrrolidin-1-yl]pyrimidin-4-yl]amino]methyl]phenyl]acetic acid] | > 80%
 | < 500 nM | N#Cc1ccc(CNc2ncnc(N3CCCC3c3ccc(C(F)(F)F)cc3)c2F)cc1 (centres unmarked) [Example 88, 4-[[[5-fluoro-6-[2-[4-(trifluoromethyl)phenyl]pyrrolidin-1-yl]pyrimidin-4-yl]amino]methyl]benzonitrile] | > 80%
